Measurements published in US10562842B2, “Use of polyaminoisoprenyl derivatives in antibiotic or antiseptic treatment” (UNIVERSITE D'AIX-MARSEILLE, priority 2011, dated 2020).

Assays:
[1] = test system: Enterobacter aerogenes MDR Ea289; test: MIC of antibiotics ± test compound (MIC ratio), micro-broth dilution; format: cell-based; conditions: compound at MIC/4, Set 2; for MIC ratio (*) on Ea289 Dox: doxycycline; for MIC ratio (*) on Ea289 Nal: nalidixic acid
[2] = test system: Salmonella Thyphimurium MDR BN10055; test: as above; format: cell-based, Salmonella enterica serovar Typhimurium; conditions: compound at MIC/4; for MIC ratio (*) on BN10055 Chl: chloramphenicol; for MIC ratio (*) on BN10055 Dox: doxycycline; for MIC ratio (*) on BN10055 Nal: nalidixic acid
Protocol: (§1) The Enterobacter aerogenes Ea289 strain is a Kans derivative of the MDR clinical isolate Ea27, the acrB mutant, EaEP294, was constructed from Ea289. Multidrug-resistant Salmonella enterica serovar Typhimurium DT104 strains (BN10055) was isolated from cattle in France, the isogenic acrB derivative mutant, BN10055ΔacrB, was constructed from BN10055. Strains were maintained at −80° C. in 25% (v/v) glycerol for cryoprotection. Bacteria were routinely grown in Mueller-Hinton (MH) broth at 37° C.
(§2) Susceptibilities to antibiotics and compounds were determined in microplates by broth dilution method, as previously described. Minimal Inhibitory Concentrations (MICs) were determined with an inoculum of 10^6 CFU in 200 μL of MH broth containing two-fold serial dilutions of each drug. […] All MIC determinations were repeated at least three times in independent experiments.
(§3) […] All MIC determinations were repeated at least three times in independent experiments. The MIC ratio corresponds to the ratio of the MIC of an antibiotic alone to the MIC of the same antibiotic in the presence of the tested compound (at MIC/4).
(§4) For reminder, the MIC ratio corresponds to the ratio of the MIC of the assessed antibiotic alone to the MIC of the same antibiotic in the presence of the tested compound (at MIC/4).

[3] = test system: Enterobacter aerogenes MDR Ea289; test: as above; format: cell-based
Protocol: The process consists of treating the MDR bacteria with the compounds of the invention in the presence of antibiotics.
as §2
The MICs of chloramphenicol±test compounds (MIC/4) were determined by the micro-broth dilution method (9). All MIC determinations were repeated at least three times in independent experiments. The MIC ratio corresponds to the ratio of the MIC of an antibiotic alone to the MIC of the same antibiotic in the presence of the tested compound (at MIC/4).
The compounds listed in Table 2 were tested for their ability to decrease the chloramphenicol MIC of Ea289, an Enterobacter aerogenes MDR strain (1). Each compound was first tested at MIC/4. […] All MIC determinations were repeated at least three times in independent experiments.
as §4

BN10055ΔacrB = test: as above; format: cell-based, Salmonella enterica serovar Typhimurium; conditions: compound at MIC/4, Set 1
Protocol: as §1, §2, §3, §4

[4] = test system: strain IV2571223 - Escherichia coli pig (sensible); test: MIC of antibiotics in the presence and absence of test compound, veterinary strains; format: cell-based; design: MIC for strain IV2571223, Doxycycline in the presence of test compound: unit not given beside the values; conditions: compound at the Concentration (μM) (2-50)
Protocol: (§5) For each strain and each antibiotic, the MICs were determined in the presence and in the absence of one test compound.

[5] = test system: strain IV2570060 - Escherichia coli cattle (sensible); test: as above; format: cell-based; conditions: compound at the Concentration (μM) (4-50)
Protocol: as §5

[6] = test system: strain IV2570533 - Escherichia coli cattle (resistant); test: as above; format: cell-based; conditions: compound at the Concentration (μM) (0.896-12.6)
Protocol: as §5

[7] = test system: strain IV2571418 - Escherichia coli pig (resistant); test: as above; format: cell-based; design: MIC for strain IV2571418, Doxycycline in the presence of test compound: unit not given beside the values; conditions: compound at the Concentration (μM) (4-50)
Protocol: as §5

CHO cells = test: Toxicity on CHO cultured cells; format: cell-based
Protocol: The toxicity of each compound was determined on CHO cultured cells. Incubation of CHO cells was performed with serial dilution of compounds. The compounds are either solubilized in DMSO or in PBS. The IC50 corresponds to the concentration of compounds leading to a killing of 50% of the CHO cells after 24 hours of incubation.

Ea289ΔacrB (Ea294) = test: MIC of antibiotics ± test compound (MIC ratio), micro-broth dilution; format: cell-based, Enterobacter aerogenes; conditions: compound at MIC/4, Set 1
Protocol: as §1, §2, §3, §4

[8] = chloramphenicol, compound at MIC/4, Set 2

## CC(C)=CCC/C(C)=C/CNCCCN(C)CCCN [Compound 13, {3-[(3-Amino-propyl)-methyl-amino]-propyl}-((E)-3,7-dimethyl-octa-2,6-dienyl)-amine]
[1]
  MIC ratio (*) on Ea289 Dox: 16
  MIC ratio (*) on Ea289 Nal: 8
[2]; Set 2
  MIC ratio (*) on BN10055 Chl: 8-16
  MIC ratio (*) on BN10055 Dox: 16
  MIC ratio (*) on BN10055 Nal: 32
[3]; [8]
  MIC ratio (*) on Ea289 Chl: 16

## CC(C)=CCC/C(C)=C/CC/C(C)=C/CNCCCN1CCOCC1 [Compound 23]
[1]
  MIC ratio (*) on Ea289 Dox: 32
  MIC ratio (*) on Ea289 Nal: 8
[2]; Set 2
  MIC ratio (*) on BN10055 Chl: 8
  MIC ratio (*) on BN10055 Dox: 16
  MIC ratio (*) on BN10055 Nal: 32
[3]; [8]
  MIC ratio (*) on Ea289 Chl: 8

## CC(C)=CCC/C(C)=C/CC/C(C)=C/CNCCCNCCCCN [Compound 19]
[1]
  MIC ratio (*) on Ea289 Dox: 64
  MIC ratio (*) on Ea289 Nal: 16
[2]; Set 2
  MIC ratio (*) on BN10055 Chl: 8-16
  MIC ratio (*) on BN10055 Dox: 16
  MIC ratio (*) on BN10055 Nal: 64
[3]; [8]
  MIC ratio (*) on Ea289 Chl: 8-16

## CCN(CC)CCNCCCNC/C=C(\C)CCC=C(C)C [Compound 21]
[1]
  MIC ratio (*) on Ea289 Dox: 32
  MIC ratio (*) on Ea289 Nal: 8
[2]; Set 2
  MIC ratio (*) on BN10055 Chl: 16
  MIC ratio (*) on BN10055 Dox: 32
  MIC ratio (*) on BN10055 Nal: 64
[3]; [8]
  MIC ratio (*) on Ea289 Chl: 8-16

## CC(C)=CCCC(C)=CCNCCCNCCCCNCCCN (racemic) [Compound 10, {3-[4-(3-Amino-propylamino)-butylamino]-propyl}-(3,7-dimethyl-octa-2,6-dienyl)-amine]
[1]
  MIC ratio (*) on Ea289 Dox: 16
  MIC ratio (*) on Ea289 Nal: 16
BN10055ΔacrB; chloramphenicol
  MIC ratio(*) on BN10055ΔacrB Chl: 2
BN10055ΔacrB; erythromycin
  MIC ratio(*) on BN10055ΔacrB Ery: 8
BN10055ΔacrB; nalidixic acid
  MIC ratio(*) on BN10055ΔacrB Nal: 2
[2]; Set 1
  MIC ratio (*) on BN10055 Chl: 16
  MIC ratio (*) on BN10055 Nal: 64
[2]; Set 2
  MIC ratio (*) on BN10055 Chl: 16
  MIC ratio (*) on BN10055 Dox: 16
  MIC ratio (*) on BN10055 Nal: 64
[2]; erythromycin, Set 1
  MIC ratio(*) on BN10055 Ery: 4
[3]; chloramphenicol
  Effective concentration (mM) for a MIC ratio of chloramphenicol ≥ 8 on Ea289: 0.0078 mM
[3]; chloramphenicol MIC ratio of 8 on Ea289
  efficient concentration, times lower than the control PAβN: about 4.9 times
[3]; chloramphenicol on Ea289
  activity, effective concentration compared with PAβN to reach a MIC ratio of 8: strong activity
[3]; chloramphenicol, compound at MIC/4, Set 1
  MIC ratio (*) on Ea289 Chl: 16
[3]; [8]
  MIC ratio (*) on Ea289 Chl: 8
[3]; erythromycin, compound at MIC/4, Set 1
  MIC ratio(*) on Ea289 Ery: 4
[3]; nalidixic acid, compound at MIC/4, Set 1
  MIC ratio (*) on Ea289 Nal: 16
[4]
  MIC for strain IV2571223, Doxycycline in the presence of test compound: 0.0625
  MIC for strain IV2571223, Tylosine in the presence of test compound: 4
[5]
  MIC for strain IV2570060, Doxycycline in the presence of test compound: 0.125
  MIC for strain IV2570060, Tylosine in the presence of test compound: 16
[6]
  MIC for strain IV2570533, Doxycycline in the presence of test compound: 2
  MIC for strain IV2570533, Tylosine in the presence of test compound: 8
[7]
  MIC for strain IV2571418, Doxycycline in the presence of test compound: 2
  MIC for strain IV2571418, Tylosine in the presence of test compound: 16
CHO cells; Cricetulus griseus, killing of 50% of the CHO cells after 24 hours of incubation
  IC50: 2.33 mM
CHO cells; IC50 on CHO cells versus effective concentration on Ea289
  IC50 on CHO cells, times higher than effective concentration: about 300 times
Ea289ΔacrB (Ea294); chloramphenicol
  MIC ratio(*) on Ea289ΔacrB Chl: 16
Ea289ΔacrB (Ea294); erythromycin
  MIC ratio(*) on Ea289ΔacrB Ery: 8
Ea289ΔacrB (Ea294); nalidixic acid
  MIC ratio(*) on Ea289ΔacrB Nal: 8

## CC(C)=CCC/C(C)=C/CC/C(C)=C/CNCCCCN [Compound 17]
[1]
  MIC ratio (*) on Ea289 Dox: 64
  MIC ratio (*) on Ea289 Nal: 16
[2]; Set 2
  MIC ratio (*) on BN10055 Chl: 8
  MIC ratio (*) on BN10055 Dox: 16
  MIC ratio (*) on BN10055 Nal: 64
[3]; [8]
  MIC ratio (*) on Ea289 Chl: 8-16
